Earlier results, collected in US6627208B2, “Biocidal material with improved activity” (Eastman Kodak Company, priority 1999, dated 2003).
Converted amounts (≈) assume the structure as drawn.

Conditions: limit of solubility

solubility in water: 5 µg/mL (≈ 17.7 µM)
Structure (SMILES): CCCCCCCCn1sc(Cl)c(Cl)c1=O [Kathon 287T®]
